Structures can show the parent of a compound that is named as a salt.
Columns and labels:
[1] = target: purified human plasma kallikrein (Homo sapiens (Human), UniProt P03952); assay: biochemical; type: biochemical; details: read-out: Plasma Kallikrein Ki
[2] = target: purified human Factor XIa (Homo sapiens (Human), UniProt P03951); assay: biochemical; type: biochemical; details: read-out: Factor XIa Ki
Chain of purified human Factor XIa (P03951 whole entry, looked up): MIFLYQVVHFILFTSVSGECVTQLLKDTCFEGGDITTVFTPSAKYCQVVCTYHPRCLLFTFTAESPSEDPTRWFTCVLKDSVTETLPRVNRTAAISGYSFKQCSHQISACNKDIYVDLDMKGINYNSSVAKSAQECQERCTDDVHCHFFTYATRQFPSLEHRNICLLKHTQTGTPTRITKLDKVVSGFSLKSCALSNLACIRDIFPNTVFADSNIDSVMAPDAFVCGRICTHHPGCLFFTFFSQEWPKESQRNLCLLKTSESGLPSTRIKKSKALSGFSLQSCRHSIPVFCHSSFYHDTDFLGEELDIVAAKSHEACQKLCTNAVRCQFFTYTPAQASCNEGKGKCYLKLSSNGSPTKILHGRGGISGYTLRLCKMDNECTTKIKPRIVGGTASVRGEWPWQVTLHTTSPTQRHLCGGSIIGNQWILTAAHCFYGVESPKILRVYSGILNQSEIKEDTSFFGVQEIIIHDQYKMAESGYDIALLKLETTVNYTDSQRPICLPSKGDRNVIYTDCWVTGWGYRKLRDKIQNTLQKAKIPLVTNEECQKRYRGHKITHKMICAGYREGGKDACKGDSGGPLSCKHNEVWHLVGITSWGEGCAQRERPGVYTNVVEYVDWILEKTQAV
Chain of purified human Factor XIa (P03951 whole entry partner, looked up): as the sequence (P03951 whole entry, looked up) above

Chain of purified human plasma kallikrein (P03952 whole entry, looked up): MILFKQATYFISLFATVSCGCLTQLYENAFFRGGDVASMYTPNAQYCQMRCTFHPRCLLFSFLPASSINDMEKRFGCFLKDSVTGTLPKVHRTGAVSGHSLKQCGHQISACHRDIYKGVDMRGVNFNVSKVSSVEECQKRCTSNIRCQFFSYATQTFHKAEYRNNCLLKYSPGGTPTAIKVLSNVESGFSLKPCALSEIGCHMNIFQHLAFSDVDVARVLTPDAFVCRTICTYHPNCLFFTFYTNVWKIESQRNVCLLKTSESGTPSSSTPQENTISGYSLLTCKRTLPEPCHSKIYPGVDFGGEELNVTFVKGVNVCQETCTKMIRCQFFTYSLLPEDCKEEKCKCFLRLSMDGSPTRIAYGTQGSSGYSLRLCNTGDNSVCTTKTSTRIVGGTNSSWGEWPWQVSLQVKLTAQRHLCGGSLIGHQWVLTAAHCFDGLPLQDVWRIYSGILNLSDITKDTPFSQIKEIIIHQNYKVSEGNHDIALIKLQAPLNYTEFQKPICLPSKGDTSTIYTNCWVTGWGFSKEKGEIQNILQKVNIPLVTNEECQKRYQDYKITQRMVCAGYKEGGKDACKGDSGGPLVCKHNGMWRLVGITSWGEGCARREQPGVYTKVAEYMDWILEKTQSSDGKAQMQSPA
Chain of purified human plasma kallikrein (P03952 whole entry partner, looked up): as the sequence (P03952 whole entry, looked up) above

Structure (SMILES)	Ki [1] [nM]	Ki [2] [nM]
C[C@@H]1CCC[C@H](N2CCC(c3c(F)ccc(Cl)c3F)=CC2=O)c2cc(ccn2)-c2ccc(Nc3cccnc3)cc2NC1=O [Example 195, (10R,14S)-14-[4-(3-chloro-2,6-difluorophenyl)-6-oxo-1,2,3,6-tetrahydropyridin-1-yl]-10-methyl-5-[(pyridin-3-yl)amino]-8,16-diazatricyclo[13.3.1.0^2,7]nonadeca-1(19),2(7),3,5,15,17-hexaen-9-one, 3 TFA salt]	2.96	0.47
C[C@@H]1CCC[C@H](N2CCC(c3c(F)ccc(Cl)c3F)=CC2=O)c2cc(ccn2)-c2ccc(Nc3cccnn3)cc2NC1=O [Example 196, (10R,14S)-14-[4-(3-chloro-2,6-difluorophenyl)-6-oxo-1,2,3,6-tetrahydropyridin-1-yl]-10-methyl-5-[(pyridazin-3-yl)amino]-8,16-diazatricyclo[13.3.1.0^2,7]nonadeca-1(19),2(7),3,5,15,17-hexaen-9-one, 2 TFA salt]	1.52	0.8
C[C@@H]1CCC[C@H](N2CCC(c3c(F)ccc(Cl)c3F)=CC2=O)c2cc(ccn2)-c2cc(C(=O)O)c(N)cc2NC1=O [Example 198, (10R,14S)-5-amino-14-[4-(3-chloro-2,6-difluorophenyl)-6-oxo-1,2,3,6-tetrahydropyridin-1-yl]-10-methyl-9-oxo-8,16-diazatricyclo[13.3.1.0^2,7]nonadeca-1(19),2,4,6,15,17-hexaene-4-carboxylic acid, 2 TFA salt]	1	< 0.05
C[C@@H]1CCC[C@H](N2CCC(c3c(F)ccc(Cl)c3F)=CC2=O)c2cc(ccn2)-c2cc3c(O)cc(=O)[nH]c3cc2NC1=O [Example 199, (14R,18S)-18-[4-(3-chloro-2,6-difluorophenyl)-6-oxo-1,2,3,6-tetrahydropyridin-1-yl]-5-hydroxy-14-methyl-8,12,20-triazatetracyclo[17.3.1.0^2,11.0^4,9]tricosa-1(23),2,4(9),5,10,19,21-heptaene-7,13-dione, TFA salt]	1.79	< 0.05
C[C@@H]1CCC[C@H](n2ccc(-c3c(F)ccc(Cl)c3F)cc2=O)c2cc(ccn2)-c2c(F)cccc2NC1=O [Example 200, (10R,14S)-14-[4-(3-chloro-2,6-difluorophenyl)-2-oxo-1,2-dihydropyridin-1-yl]-3-fluoro-10-methyl-8,16-diazatricyclo[13.3.1.0^2,7]nonadeca-1(19),2(7),3,5,15,17-hexaen-9-one, TFA salt]	28.7	18.1
C[C@@H]1CCC[C@H](N2CCC(c3c(F)ccc(Cl)c3F)=CC2=O)c2cc(ccn2)-c2c(F)cc(F)cc2NC1=O [Example 201, (10R,14S)-14-[4-(3-chloro-2,6-difluorophenyl)-6-oxo-1,2,3,6-tetrahydropyridin-1-yl]-3,5-difluoro-10-methyl-8,16-diazatricyclo[13.3.1.0^2,7]nonadeca-1(19),2(7),3,5,15,17-hexaen-9-one, TFA salt]	105	50
C[C@@H]1CCC[C@H](N2CCC(c3c(Br)ccc(Cl)c3F)=CC2=O)c2cc(ccn2)-c2c(F)cc(F)cc2NC1=O [Example 202, (10R,14S)-14-[4-(6-bromo-3-chloro-2-fluorophenyl)-6-oxo-1,2,3,6-tetrahydropyridin-1-yl]-3,5-difluoro-10-methyl-8,16-diazatricyclo[13.3.1.0^2,7]nonadeca-1(19),2(7),3,5,15,17-hexaen-9-one]	30.1	8.56
C[C@@H]1CCC[C@H](N2CCC(c3c(F)ccc(Cl)c3F)=CC2=O)c2cc(ccn2)-c2c(ccc(F)c2F)NC1=O [Example 203, (10R,14S)-14-[4-(3-chloro-2,6-difluorophenyl)-6-oxo-1,2,3,6-tetrahydropyridin-1-yl]-3,4-difluoro-10-methyl-8,16-diazatricyclo[13.3.1.0^2,7]nonadeca-1(19),2(7),3,5,15,17-hexaen-9-one, TFA salt]	44	19.4

From patent publication US9409908B2 (priority 2012, dated 2016)
